Measured values reported in patent US8440710B2, “HSL inhibitors useful in the treatment of diabetes” (Hoffmann-La Roche Inc., priority 2009, dated 2013).

Molecular target: T1, human HSL (Homo sapiens, UniProt Q05469)
T1 construct: generate a full length human HSL ORF with a 3′-His6 tag; made in house; host or cells: High 5 insect cells (baculovirus, pFast-BAC)
T1 sequence (Q05469 1-1076): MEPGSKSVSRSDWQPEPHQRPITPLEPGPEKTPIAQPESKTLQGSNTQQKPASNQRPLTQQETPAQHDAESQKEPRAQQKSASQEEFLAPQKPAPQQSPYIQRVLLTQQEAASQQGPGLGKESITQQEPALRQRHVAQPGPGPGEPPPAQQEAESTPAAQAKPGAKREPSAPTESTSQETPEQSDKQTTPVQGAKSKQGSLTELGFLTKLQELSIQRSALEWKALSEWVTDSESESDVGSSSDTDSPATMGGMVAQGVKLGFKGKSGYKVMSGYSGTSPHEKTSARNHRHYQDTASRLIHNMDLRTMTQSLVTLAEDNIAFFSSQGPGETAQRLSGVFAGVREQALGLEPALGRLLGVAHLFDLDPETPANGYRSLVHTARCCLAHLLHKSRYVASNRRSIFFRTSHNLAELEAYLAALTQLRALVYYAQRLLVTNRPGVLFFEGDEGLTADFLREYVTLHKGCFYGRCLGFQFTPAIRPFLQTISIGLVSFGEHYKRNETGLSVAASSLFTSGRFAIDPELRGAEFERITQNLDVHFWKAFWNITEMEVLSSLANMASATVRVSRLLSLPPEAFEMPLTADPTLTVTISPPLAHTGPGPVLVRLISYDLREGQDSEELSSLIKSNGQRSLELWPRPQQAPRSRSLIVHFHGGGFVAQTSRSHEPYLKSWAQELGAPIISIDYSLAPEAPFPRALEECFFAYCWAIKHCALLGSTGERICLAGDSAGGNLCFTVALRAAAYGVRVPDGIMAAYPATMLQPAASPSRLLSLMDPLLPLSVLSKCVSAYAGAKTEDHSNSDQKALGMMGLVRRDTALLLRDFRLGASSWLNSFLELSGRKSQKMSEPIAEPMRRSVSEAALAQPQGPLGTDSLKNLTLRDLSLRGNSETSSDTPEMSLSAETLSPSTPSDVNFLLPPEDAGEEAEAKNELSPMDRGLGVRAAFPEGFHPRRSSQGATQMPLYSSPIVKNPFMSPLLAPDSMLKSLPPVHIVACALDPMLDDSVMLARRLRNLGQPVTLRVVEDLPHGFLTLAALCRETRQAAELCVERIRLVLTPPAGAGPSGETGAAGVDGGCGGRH
Experiment: Human Hormone-Sensitive Lipase (HSL) enzyme inhibition assay (colorimetric, DMPT substrate)
Format: biochemical
Conditions: human full length HSL-His6, 2,3-dimercapto-1-propanol tributyrate substrate, 37° C. 20 minutes, absorbance at 405 nm; read-out: HSL hum IC50
Summary of the method: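 Full-length human HSL with C-terminal His6, expressed in baculovirus-infected High 5 cells and Ni-NTA purified, was added (15 ug/ml stock) to 1.5 mM DMPT in 100 mM MOPS pH 7.2, 0.2 mg/ml fatty acid-free BSA containing compound. After 20 min at 37 °C, DTNB with SDS/Triton X-100 was added; A405 read after 15 min at RT.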

Compound `CCC[C@]1(O)CC[C@]2(CCN(c3ccc(C(O)C(C)(F)F)cc3)C2=O)CC1` (stereo partly drawn) [Example 192, (5α,8α)-2-(4-(2,2-difluoro-1-hydroxypropyl)phenyl)-8-hydroxy-8-propyl-2-aza-spiro[4.5]decan-1-one] has an IC50 of 50 nM.

With `CC(F)(F)C(O)c1ccc(N2CC[C@]3(CC[C@@](O)(CCC(F)(F)F)CC3)C2=O)cc1` (stereo partly drawn) [Example 193, (5α,8α)-2-(4-(2,2-difluoro-1-hydroxypropyl)phenyl)-8-hydroxy-8-(3,3,3-trifluoropropyl)-2-aza-spiro[4.5]decan-1-one] the IC50 was 30 nM.

With `O=C1N(c2ccc([C@@H](O)C(F)(F)F)cc2)CC[C@]12CC[C@@](O)(CCC(F)(F)F)CC2` [Example 194, (5α,8α)-8-hydroxy-2-(4-((R)-2,2,2-trifluoro-1-hydroxyethyl)phenyl)-8-(3,3,3-trifluoropropyl)-2-aza-spiro[4.5]decan-1-one] the IC50 was 20 nM.

Compound `CCC[C@]1(O)CC[C@]2(CCN(c3ccc(C(O)C(F)F)cc3)C2=O)CC1` (stereo partly drawn) [Example 195, (5α,8α)-2-(4-(2,2-difluoro-1-hydroxyethyl)phenyl)-8-hydroxy-8-propyl-2-aza-spiro[4.5]decan-1-one] has an IC50 of 110 nM.

Compound `CC(C)Oc1ccc(N2CC[C@]3(CC[C@@](O)(C(C)C)CC3)C2=O)cc1` [Example 196, (5α,8α)-8-hydroxy-2-(4-isopropoxyphenyl)-8-isopropyl-2-aza-spiro[4.5]decan-1-one] has an IC50 of 10 nM.

Work on `CC(C)Oc1ccc(N2CC[C@]3(CC[C@@](O)(C4CC4)CC3)C2=O)cc1` [Example 197, (5α,8α)-8-cyclopropyl-8-hydroxy-2-(4-isopropoxyphenyl)-2-aza-spiro[4.5]decan-1-one] yielded an IC50 of 20 nM.

`CC(C)Oc1ccc(N2CC[C@]3(CC[C@@](O)(C4CCCC4)CC3)C2=O)cc1` [Example 198, (5α,8α)-8-cyclopentyl-8-hydroxy-2-(4-isopropoxyphenyl)-2-aza-spiro[4.5]decan-1-one] showed an IC50 of 10 nM.

In the case of `CC(C)C[C@]1(O)CC[C@]2(CCN(c3ccc(OC(C)C)cc3)C2=O)CC1` [Example 199, (5α,8α)-8-hydroxy-8-isobutyl-2-(4-isopropoxyphenyl)-2-aza-spiro[4.5]decan-1-one], the IC50 is reported as 10 nM.

`O=C1N(c2ccc([C@@H](O)C(F)(F)F)cc2)CC[C@]12CC[C@@](O)(C1CCC1)CC2` [Example 200, (5α,8α)-8-cyclobutyl-8-hydroxy-2-(4-((R)-2,2,2-trifluoro-1-hydroxyethyl)phenyl)-2-aza-spiro[4.5]decan-1-one] was tested, and the IC50 was 20 nM.

Work on `O=C1N(c2ccc([C@@H](O)C(F)(F)F)cc2)CC[C@]12CC[C@@](O)(C1CC1)CC2` [Example 201, (5α,8α)-8-cyclopropyl-8-hydroxy-2-(4-((R)-2,2,2-trifluoro-1-hydroxyethyl)phenyl)-2-aza-spiro[4.5]decan-1-one] yielded an IC50 of 50 nM.

For `O=C1N(c2ccc([C@@H](O)C(F)(F)F)cc2)CC[C@]12CC[C@@](O)(C1CCCC1)CC2` [Example 202, (5α,8α)-8-cyclopentyl-8-hydroxy-2-(4-((R)-2,2,2-trifluoro-1-hydroxyethyl)phenyl)-2-aza-spiro[4.5]decan-1-one], the IC50 was 10 nM.

`CC(C)c1ccc(N2CC[C@]3(CC[C@@](O)(C(C)C)CC3)C2=O)cc1` [Example 203, (5α,8α)-8-hydroxy-8-isopropyl-2-(4-isopropylphenyl)-2-aza-spiro[4.5]decan-1-one] showed an IC50 of 10 nM.

In the case of `CCC[C@]1(O)CC[C@]2(CCN(c3ccc(C(C)C)cc3)C2=O)CC1` [Example 204, (5α,8α)-8-hydroxy-2-(4-isopropylphenyl)-8-propyl-2-aza-spiro[4.5]decan-1-one], the IC50 is reported as 20 nM.

In the case of `CC(C)c1ccc(N2CC[C@]3(CC[C@@](O)(c4ccccc4)CC3)C2=O)cc1` [Example 205, (5α,8α)-8-hydroxy-2-(4-isopropylphenyl)-8-phenyl-2-aza-spiro[4.5]decan-1-one], the IC50 is reported as 10 nM.

`CC(C)Oc1ccc(N2CC[C@]3(CC[C@@](O)(c4ccccc4)CC3)C2=O)cc1` [Example 206, (5α,8α)-8-hydroxy-2-(4-isopropoxyphenyl)-8-phenyl-2-aza-spiro[4.5]decan-1-one] was tested, and the IC50 was 10 nM.

Compound `CC(C)[C@]1(O)CC[C@]2(CCN(c3ccc(C(O)C(F)F)cc3)C2=O)CC1` (stereo partly drawn) [Example 207, (5α,8α)-2-(4-(2,2-difluoro-1-hydroxyethyl)phenyl)-8-hydroxy-8-isopropyl-2-aza-spiro[4.5]decan-1-one] has an IC50 of 90 nM.

Compound `CCC[C@]1(O)CC[C@]2(CCN(c3ccc(C(F)(F)F)cc3)C2=O)CC1` [Example 208, (5α,8α)-8-hydroxy-8-propyl-2-(4-(trifluoromethyl)phenyl)-2-aza-spiro[4.5]decan-1-one] has an IC50 of 30 nM.

With `CC(C)[C@]1(O)CC[C@]2(CCN(c3ccc(C(F)(F)F)cc3)C2=O)CC1` [Example 209, (5α,8α)-8-hydroxy-8-isopropyl-2-(4-(trifluoromethyl)phenyl)-2-aza-spiro[4.5]decan-1-one] the IC50 was 30 nM.

With `COC[C@]1(O)CC[C@]2(CCN(c3ccc(OC(C)C)cc3)C2=O)CC1` [Example 210, (5α,8α)-8-hydroxy-2-(4-isopropoxyphenyl)-8-(methoxymethyl)-2-aza-spiro[4.5]decan-1-one] the IC50 was 50 nM.

`CC(C)Oc1ccc(N2CC[C@]3(CC[C@@](O)(c4ccsc4)CC3)C2=O)cc1` [Example 211, (5α,8α)-8-hydroxy-2-(4-isopropoxyphenyl)-8-(thiophen-3-yl)-2-aza-spiro[4.5]decan-1-one] showed an IC50 of 10 nM.

Compound `CC(C)Oc1ccc(N2CC[C@]3(CC[C@@](O)(c4c(Br)nnn4C)CC3)C2=O)cc1` [Example 212, (5α,8α)-8-(5-Bromo-3-methyl-3H-[1,2,3]triazol-4-yl)-8-hydroxy-2-(4-isopropoxy-phenyl)-2-aza-spiro[4.5]decan-1-one] has an IC50 of 10 nM.

Compound `CC(C)Oc1ccc(N2CC[C@]3(CC[C@@](O)(c4cnnn4C)CC3)C2=O)cc1` [Example 213] has an IC50 of 390 nM.

`Cn1nnc(Br)c1[C@]1(O)CC[C@]2(CCN(c3ccc(C(F)(F)F)cc3)C2=O)CC1` [Example 214, (5α,8α)-8-(5-Bromo-3-methyl-3H-[1,2,3]triazol-4-yl)-8-hydroxy-2-(4-trifluoromethyl-phenyl)-2-aza-spiro[4.5]decan-1-one] showed an IC50 of 50 nM.

In the case of `Cn1nncc1[C@]1(O)CC[C@]2(CCN(c3ccc(C(F)(F)F)cc3)C2=O)CC1` [Example 215, (5α,8α)-8-Hydroxy-8-(3-methyl-3H-[1,2,3]triazol-4-yl)-2-(4-trifluoromethyl-phenyl)-2-aza-spiro[4.5]decan-1-one], the IC50 is reported as 590 nM.

`CC(C)c1ccc(N2CC[C@]3(CC[C@@](O)(COCC(F)(F)F)CC3)C2=O)cc1` [Example 216, (5α,8α)-8-hydroxy-2-(4-isopropylphenyl)-8-((2,2,2-trifluoroethoxy)methyl)-2-aza-spiro[4.5]decan-1-one] gave an IC50 of 10 nM.

Compound `CC(C)Oc1ccc(N2CC[C@]3(CC[C@@](O)(c4ccn(C)n4)CC3)C2=O)cc1` [Example 217, (5α,8α)-8-hydroxy-2-(4-isopropoxyphenyl)-8-(1-methyl-1H-pyrazol-3-yl)-2-aza-spiro[4.5]decan-1-one] has an IC50 of 50 nM.

Work on `COC[C@]1(O)CC[C@]2(CCN(c3ccc(C(C)C)cc3)C2=O)CC1` [Example 218, (5α,8α)-8-hydroxy-2-(4-isopropylphenyl)-8-(methoxymethyl)-2-aza-spiro[4.5]decan-1-one] yielded an IC50 of 40 nM.

Work on `O=C1N(c2ccc(C(F)(F)F)cc2)CC[C@]12CC[C@@](O)(COCC(F)(F)F)CC2` [Example 219, (5α,8α)-8-hydroxy-8-((2,2,2-trifluoroethoxy)methyl)-2-(4-(trifluoromethyl)phenyl)-2-aza-spiro[4.5]decan-1-one] yielded an IC50 of 11 nM.

For `Cc1cc(C[C@]2(O)CC[C@]3(CCN(c4ccc(OC(C)C)cc4)C3=O)CC2)no1` [Example 220], the IC50 was 20 nM.

Work on `Cc1cc(C[C@]2(O)CC[C@@]3(CCN(c4ccc(OC(C)C)cc4)C3=O)CC2)no1` [Example 221, (5α,8β)-8-hydroxy-2-(4-isopropoxyphenyl)-8-((5-methylisoxazol-3-yl)methyl)-2-aza-spiro[4.5]decan-1-one] yielded an IC50 of 1160 nM.
